Assay results published in US6479435B1, “Diaryl ethers and processes for their preparation and herbicidal and desiccant compositions containing them” (ISK Americas Incorporated, priority 1997, dated 2002).

Key:
Format in all cases: in vivo
[1] = test system: soybean (Glycine max L., var. Pella 86, SOY); test: Post-emerge greenhouse test, crop damage rating; settings: 14 days after application
How it was run: (§1)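 Scores use a 0 (no damage) to 100 (complete kill) scale, taken 14 days after a foliar spray. Acetone solutions with 0.25% v/v non-ionic surfactant were applied by track sprayer at 187 l/ha and 63-1000 g ai/ha to bottom-watered 2-3 leaf plants.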

[2] = test system: large crabgrass (Digitaria sanguinalis, DIGSA); test: Post-emerge greenhouse herbicide test, phytotoxicity rating; settings: 14 days after application
How it was run: as §1

[3] = test system: velvetleaf (Abutilon theophrasti, ABUTH); test: as above; settings: 14 days after application
How it was run: as §1

[4] = test system: Johnsongrass (Sorghum halepense, SORHA); test: as above; settings: 14 days after application
How it was run: as §1

[5] = test system: redroot pigweed (Amaranthus retroflexus, AMARE); test: as above; settings: 14 days after application
How it was run: as §1

[6] = test system: lambsquarters (Chenopodium album, CHEAL); test: as above; settings: 14 days after application
How it was run: as §1

[7] = test system: ivyleaf morningglory (Ipomoea hederacea, IPOHE); test: as above; settings: 14 days after application
How it was run: as §1

[8] = test system: green foxtail (Setaria viridis, SETVI); test: as above; settings: 14 days after application
How it was run: as §1

[9] = test system: barnyardgrass (Echinochloa crusgalli, ECHCG); test: as above; settings: 14 days after application
How it was run: as §1

[10] = test system: field corn (Zea mays L., var. Dekalb 535, CORN); test: Pre-emerge greenhouse test, crop damage rating; settings: 14 days after application, rating scale 0-100
How it was run: (§2)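 Visual 0–100 injury rating (100 = all plants dead) taken 14 days after treatment. Rates of 125–1000 g ai/ha in acetone, 187 l/ha, were sprayed onto soil one day post-sowing; pots were surface-watered to incorporate, then bottom-watered.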

[11] = test system: upland rice (Oryza sp., var.Tebonnet, RICE); test: Pre-emerge greenhouse test, crop damage rating; settings: 14 days after application, rating scale 0-100
How it was run: as §2

[12] = test system: common ragweed (Ambrosia artemisiifolia L., AMBEL); test: Post-emerge greenhouse herbicide test, phytotoxicity rating; settings: 14 days after application
How it was run: as §1

[13] = test system: large crabgrass (Digitaria sanguinalis, DIGSA); test: Pre-emerge greenhouse herbicide test, phytotoxicity rating; settings: 14 days after application, rating scale 0-100
How it was run: as §2

[14] = test system: velvetleaf (Abutilon theophrasti, ABUTH); test: as above; settings: 14 days after application, rating scale 0-100
How it was run: as §2

[15] = test system: Johnsongrass (Sorghum halepense, SORHA); test: as above; settings: 14 days after application, rating scale 0-100
How it was run: as §2

[16] = test system: redroot pigweed (Amaranthus retroflexus, AMARE); test: as above; settings: 14 days after application, rating scale 0-100
How it was run: as §2

[17] = test system: lambsquarters (Chenopodium album, CHEAL); test: as above; settings: 14 days after application, rating scale 0-100
How it was run: as §2

[18] = test system: ivyleaf morningglory (Ipomoea hederacea, IPOHE); test: as above; settings: 14 days after application, rating scale 0-100
How it was run: as §2

[19] = test system: green foxtail (Setaria viridis, SETVI); test: as above; settings: 14 days after application, rating scale 0-100
How it was run: as §2

[20] = test system: barnyardgrass (Echinochloa crusgalli, ECHCG); test: as above; settings: 14 days after application, rating scale 0-100
How it was run: as §2

[21] = test system: sicklepod (Cassia obtusifolia, CASOB); test: as above; settings: 14 days after application, rating scale 0-100
How it was run: as §2

[22] = test system: common ragweed (Ambrosia artemisiifolia L., AMBEL); test: as above; settings: 14 days after application, rating scale 0-100
How it was run: as §2

[23] = test system: soybean (Glycine max L., var. Pella 86, SOY); test: Pre-emerge greenhouse test, crop damage rating; settings: 14 days after application, rating scale 0-100
How it was run: as §2

[24] = test system: field corn (Zea mays L., var. Dekalb 535, CORN); test: Post-emerge greenhouse test, crop damage rating; settings: 14 days after application
How it was run: as §1

[25] = test system: upland rice (Oryza sp., var.Tebonnet, RICE); test: Post-emerge greenhouse test, crop damage rating; settings: 14 days after application
How it was run: as §1

SMILES: Cn1nc(-c2cc(Oc3ncccc3C#N)c(Cl)cc2F)c(Cl)c1C(F)(F)F [Compound 1-3]
- SOY crop damage rating (0-100) ([1]; 63 g al/ha): 30
- SOY crop damage rating (0-100) ([1]; 500 g al/ha): 90
- DIGSA phytotoxicity rating (0-100) ([2]; 63 g al/ha): 0
- DIGSA phytotoxicity rating (0-100) ([2]; 500 g al/ha): 80
- ABUTH phytotoxicity rating (0-100) ([3]; 63 g al/ha): 70
- ABUTH phytotoxicity rating (0-100) ([3]; 500 g al/ha): 100
- SORHA phytotoxicity rating (0-100) ([4]; 63 g al/ha): 20
- SORHA phytotoxicity rating (0-100) ([4]; 500 g al/ha): 80
- AMARE phytotoxicity rating (0-100) ([5]; 63 g al/ha): 100
- AMARE phytotoxicity rating (0-100) ([5]; 500 g al/ha): 100
- CHEAL phytotoxicity rating (0-100) ([6]; 63 g al/ha): 95
- CHEAL phytotoxicity rating (0-100) ([6]; 500 g al/ha): 100
- IPOHE phytotoxicity rating (0-100) ([7]; 63 g al/ha): 90
- IPOHE phytotoxicity rating (0-100) ([7]; 500 g al/ha): 10
- SETVI phytotoxicity rating (0-100) ([8]; 63 g al/ha): 0
- SETVI phytotoxicity rating (0-100) ([8]; 500 g al/ha): 90
- ECHCG phytotoxicity rating (0-100) ([9]; 63 g al/ha): 0
- ECHCG phytotoxicity rating (0-100) ([9]; 500 g al/ha): 70
- crop damage rating CORN ([10]; 125 g ai/ha): 0
- crop damage rating CORN ([10]; 500 g ai/ha): 40
- crop damage rating RICE ([11]; 125 g ai/ha): 0
- crop damage rating RICE ([11]; 500 g ai/ha): 30
- AMBEL phytotoxicity rating (0-100) ([12]; 63 g al/ha): 0
- AMBEL phytotoxicity rating (0-100) ([12]; 500 g al/ha): 80
- phytotoxicity rating DIGSA ([13]; 125 g ai/ha): 20
- phytotoxicity rating DIGSA ([13]; 500 g ai/ha): 0
- phytotoxicity rating ABUTH ([14]; 125 g ai/ha): 20
- phytotoxicity rating ABUTH ([14]; 500 g ai/ha): 0
- phytotoxicity rating SORHA ([15]; 125 g ai/ha): 0
- phytotoxicity rating SORHA ([15]; 500 g ai/ha): 40
- phytotoxicity rating AMARE ([16]; 125 g ai/ha): 100
- phytotoxicity rating AMARE ([16]; 500 g ai/ha): 100
- phytotoxicity rating CHEAL ([17]; 125 g ai/ha): 90
- phytotoxicity rating CHEAL ([17]; 500 g ai/ha): 100
- phytotoxicity rating IPOHE ([18]; 125 g ai/ha): 0
- phytotoxicity rating IPOHE ([18]; 500 g ai/ha): 30
- phytotoxicity rating SETVI ([19]; 125 g ai/ha): 95
- phytotoxicity rating ECHCG ([20]; 125 g ai/ha): 0
- phytotoxicity rating ECHCG ([20]; 500 g ai/ha): 100
- phytotoxicity rating CASOB ([21]; 125 g ai/ha): 0
- phytotoxicity rating CASOB ([21]; 500 g ai/ha): 80
- phytotoxicity rating AMBEL ([22]; 125 g ai/ha): 50
- phytotoxicity rating AMBEL ([22]; 500 g ai/ha): 50
- crop damage rating SOY ([23]; 125 g ai/ha): 0
- crop damage rating SOY ([23]; 500 g ai/ha): 95
- CORN crop damage rating (0-100) ([24]; 63 g al/ha): 0
- CORN crop damage rating (0-100) ([24]; 500 g al/ha): 10
- RICE crop damage rating (0-100) ([25]; 63 g al/ha): 20
- RICE crop damage rating (0-100) ([25]; 500 g al/ha): 70

SMILES: Cn1nc(-c2cc(Oc3nc(F)c(F)cc3F)c(Cl)cc2F)c(Cl)c1C(F)(F)F [Compound 1-6]
- SOY crop damage rating (0-100) ([1]; 63 g al/ha): 30
- SOY crop damage rating (0-100) ([1]; 500 g al/ha): 50
- DIGSA phytotoxicity rating (0-100) ([2]; 63 g al/ha): 0
- ABUTH phytotoxicity rating (0-100) ([3]; 63 g al/ha): 50
- ABUTH phytotoxicity rating (0-100) ([3]; 500 g al/ha): 100
- SORHA phytotoxicity rating (0-100) ([4]; 63 g al/ha): 30
- SORHA phytotoxicity rating (0-100) ([4]; 500 g al/ha): 70
- AMARE phytotoxicity rating (0-100) ([5]; 63 g al/ha): 99
- AMARE phytotoxicity rating (0-100) ([5]; 500 g al/ha): 100
- CHEAL phytotoxicity rating (0-100) ([6]; 63 g al/ha): 30
- CHEAL phytotoxicity rating (0-100) ([6]; 500 g al/ha): 100
- IPOHE phytotoxicity rating (0-100) ([7]; 63 g al/ha): 50
- IPOHE phytotoxicity rating (0-100) ([7]; 500 g al/ha): 100
- SETVI phytotoxicity rating (0-100) ([8]; 63 g al/ha): 20
- SETVI phytotoxicity rating (0-100) ([8]; 500 g al/ha): 60
- ECHCG phytotoxicity rating (0-100) ([9]; 63 g al/ha): 20
- ECHCG phytotoxicity rating (0-100) ([9]; 500 g al/ha): 70
- crop damage rating CORN ([10]; 125 g ai/ha): 0
- crop damage rating CORN ([10]; 500 g ai/ha): 0
- crop damage rating RICE ([11]; 125 g ai/ha): 0
- AMBEL phytotoxicity rating (0-100) ([12]; 63 g al/ha): 0
- AMBEL phytotoxicity rating (0-100) ([12]; 500 g al/ha): 90
- phytotoxicity rating DIGSA ([13]; 125 g ai/ha): 20
- phytotoxicity rating DIGSA ([13]; 500 g ai/ha): 10
- phytotoxicity rating ABUTH ([14]; 125 g ai/ha): 50
- phytotoxicity rating ABUTH ([14]; 500 g ai/ha): 80
- phytotoxicity rating SORHA ([15]; 125 g ai/ha): 0
- phytotoxicity rating SORHA ([15]; 500 g ai/ha): 90
- phytotoxicity rating AMARE ([16]; 125 g ai/ha): 95
- phytotoxicity rating AMARE ([16]; 500 g ai/ha): 99
- phytotoxicity rating CHEAL ([17]; 125 g ai/ha): 40
- phytotoxicity rating CHEAL ([17]; 500 g ai/ha): 100
- phytotoxicity rating IPOHE ([18]; 125 g ai/ha): 30
- phytotoxicity rating IPOHE ([18]; 500 g ai/ha): 99
- phytotoxicity rating SETVI ([19]; 125 g ai/ha): 60
- phytotoxicity rating SETVI ([19]; 500 g ai/ha): 30
- phytotoxicity rating ECHCG ([20]; 125 g ai/ha): 30
- phytotoxicity rating ECHCG ([20]; 500 g ai/ha): 70
- phytotoxicity rating CASOB ([21]; 125 g ai/ha): 0
- phytotoxicity rating CASOB ([21]; 500 g ai/ha): 0
- phytotoxicity rating AMBEL ([22]; 125 g ai/ha): 100
- phytotoxicity rating AMBEL ([22]; 500 g ai/ha): 99
- crop damage rating SOY ([23]; 125 g ai/ha): 0
- crop damage rating SOY ([23]; 500 g ai/ha): 0
- CORN crop damage rating (0-100) ([24]; 63 g al/ha): 10
- CORN crop damage rating (0-100) ([24]; 500 g al/ha): 10
